This is an account of results in publication PMC10609273, “Radiosynthesis and Early Evaluation of a Positron Emission Tomography Imaging Probe [^18F]AGAL Targeting Alpha-Galactosidase A Enzyme for Fabry Disease” (Molecules, 2023).

Data set [1] is described as follows: Stability of the formulated product by analytical HPLC. Format: physicochemical. How it is done:
Stability of the product was monitored via analytical HPLC over time.
Approximately 2000 mCi of [^18F]fluoride was produced on a GE PETtrace 800 cyclotron and delivered to the ^18F target delivery vial of a GE FX2 N radiosynthesis module (Figure 4). The irradiated target water was passed through a pre-conditioned Sep-PAK Light QMA Cartridge to trap [^18F]fluoride, followed by elution from the cartridge into reactor 1 using 3 mg […] and 13 mg Cryptand 222 in 0.6 mL of 50% acetonitrile in water. The contents of reactor 1 were dried via azeotropic distillation using a combination of heating, helium flow, and vacuum. An additional 1 mL of acetonitrile was introduced to reactor 1 and the azeotropic drying process was repeated. The reactor temperature was then reduced to 30 °C, followed by introduction of 4-pentynyl p-tosylate (10 mg, ABX GmbH, Radeberg, Germany) in 1.0 mL acetonitrile (anhydrous). The reactor was then sealed and heated to 110 °C and allowed to react with stirring for 3 min. Reactor 1 was then opened to reactor 2, with the reactor 1 needle in the “up” position. […]

The test system of the next data set is wild type mice. The experiment in a line: Dynamic in vivo PET/CT imaging after intravenous injection. Further details: species or system mouse. To be noted: i.v. How it is done:
After intravenous injection of [^18F]AGAL in wild type mice, the radioactivity rapidly accumulated in key organs such as the kidneys, liver, and heart, with the kidneys having the highest peak standardized uptake value (SUV ~18) at 3 min followed by rapid washout from all organs to lower than 1 SUV by 30 min and remaining low until the end of the 90 min scan (Figure 6A,B).
Figure 6 Dynamic in vivo PET/CT imaging in wild type mice after [^18F]AGAL intravenous injection. Time course of average radioactivity concentrations (n = 4, Mean ± SD) from various organs shown for full 90 min (A) and first 10 min (B) after tracer injection. (C) Representative coronal sections of PET/CT scan images from a wild type mouse with frames averaged between 0–2 min, 2–10 min, 10–30 min, 30–60 min, and 60–90 min are shown. SUV: Standardized uptake value.
[^18F]AGAL PET imaging was performed on a dedicated small animal PET/CT scanner (Siemens Multimodality Inveon, Siemens Medical Solutions USA Inc., Knoxville, TN, USA). The wild-type mice (n = 3, male 129S6) were anesthetized with 3% isoflurane/medical air inhalation prior to the radiotracer injection and throughout the scan duration. A bolus intravenous injection (via the lateral tail vein) of [^18F]AGAL (~7.4 MBq) was administered followed by dynamic PET scans in list mode for 90 min. After the PET acquisition, a low-dose CT scan was acquired (80 kVp, 0.5 mA) for anatomical reference and to provide guidance for the delineation of selected tissues volume of interest (VOI). The acquired PET data were sorted into 0.5 mm sinogram bins and 25 time frames (4 × 15 s, 4 × 60 s, and 17 × 300 s) for image reconstruction using FORE/3D-OSEM-MAP. The reconstructed PET/CT images were analyzed with the Siemens Inveon Research Workplace software v4.0 or other appropriate software. The radioactivity retention within the selected tissue was obtained from mean voxel intensity values within the VOI and then converted to megabecquerels per milliliter using the calibration factor determined for the Inveon PET System. […]

`O=C(CCCCCCCn1cc(CCC[18F])nn1)N1C2C(O)C(O)C(O)C(CO)C21` (centres unmarked) [[^18F]AGAL]: the “decrease in RCP” value was “less than 3%” in data set [1] (after 6 h, with sodium ascorbate in the formulation (5 mg/mL)) and 5–8% in data set [1] (after 6 h at room temperature, 10% EtOH in saline). In addition, in the data set on wild type mice (PET images), the “bone uptake (tracer defluorination)” value is given as “No bone uptake”. In the data set with wild type mice (at 3 min), the “peak standardized uptake value (SUV), kidneys” value was ~ 18 SUV. In the data set with wild type mice (by 30 min until end of 90 min scan), the “standardized uptake value after washout, all organs” value is “lower than 1 SUV”.
